Laboratory results taken from ChEMBL document CHEMBL2046334, “New farnesyltransferase inhibitors in the phenothiazine series” (Bioorg Med Chem Lett, 2012).
The source made the active and inactive calls. The calls are words filed in the database; no cut-off is given here.

Legend:
[1] = target: T1, Protein farnesyltransferase (Homo sapiens, UniProt P49354+P49356); experiment: Inhibition of partially purified human recombinant FTase at 100 uM measured for 15 mins by automated fluorescence based assay relative to control; type: protein-complex assay
LOX IMVI = experiment: Growth inhibition of human LOXIMVI cells at 10 uM after 48 hrs by sulforhodamine B assay relative to control; type: functional; conditions: for inhibition of growth at 10 µM: read-out: GI
SK-MEL-5 = experiment: Growth inhibition of human SK-MEL-5 cells at 10 uM after 48 hrs by sulforhodamine B assay relative to control; type: functional; conditions: SK-MEL-5, 48 h, read-out: GI
HCT-15 = experiment: Growth inhibition of human HCT15 cells at 10 uM after 48 hrs by sulforhodamine B assay relative to control; type: functional; conditions: for inhibition of growth at 10 µM: HCT-15, 48 h, read-out: GI
HL-60(TB) = experiment: Growth inhibition of human HL-60(TB) cells at 10 uM after 48 hrs by sulforhodamine B assay relative to control; type: functional; conditions: HL-60, 48 h, read-out: GI
MOLT-4 = experiment: Growth inhibition of human MOLT4 cells at 10 uM after 48 hrs by sulforhodamine B assay relative to control; type: functional; conditions: MOLT-4, 48 h, read-out: GI
OVCAR-8 = experiment: Growth inhibition of human OVCAR8 cells at 10 uM after 48 hrs by sulforhodamine B assay relative to control; type: functional; conditions: for inhibition of growth at 10 µM: OVCAR-8, 48 h, read-out: GI
UACC-62 = experiment: Growth inhibition of human UACC62 cells at 10 uM after 48 hrs by sulforhodamine B assay relative to control; type: functional; conditions: UACC-62, 48 h, read-out: GI
RPMI-8226 = experiment: Growth inhibition of human RPMI8226 cells at 10 uM after 48 hrs by sulforhodamine B assay relative to control; type: functional; conditions: RPMI-8226, 48 h, read-out: GI
CAKI-1 = experiment: Growth inhibition of human Caki1 cells at 10 uM after 48 hrs by sulforhodamine B assay relative to control; type: functional; conditions: CAKI-1, 48 h, read-out: GI
EKVX = experiment: Growth inhibition of human EKVX cells at 10 uM after 48 hrs by sulforhodamine B assay relative to control; type: functional; conditions: for inhibition of growth at 10 µM: read-out: GI
SNB-75 = experiment: Growth inhibition of human SNB75 cells at 10 uM after 48 hrs by sulforhodamine B assay relative to control; type: functional; conditions: SNB-75, 48 h, read-out: GI
T47D = experiment: Growth inhibition of human T47D cells at 10 uM after 48 hrs by sulforhodamine B assay relative to control; type: functional; conditions: read-out: GI
UO-31 = experiment: Growth inhibition of human UO31 cells at 10 uM after 48 hrs by sulforhodamine B assay relative to control; type: functional; conditions: UO-31, 48 h, read-out: GI
[2] = target: T1, Protein farnesyltransferase; experiment: Inhibition of partially purified human recombinant FTase measured for 15 mins by automated fluorescence based assay; type: protein-complex assay
CCRF-CEM = experiment: Growth inhibition of human CCRF-CEM cells at 10 uM after 48 hrs by sulforhodamine B assay relative to control; type: functional; conditions: read-out: GI
MDA-MB-231 = experiment: Growth inhibition of human MDA-MB-231 cells at 10 uM after 48 hrs by sulforhodamine B assay relative to control; type: functional; conditions: MDA-MB-231, 48 h, read-out: GI
PC-3 = experiment: Growth inhibition of human PC3 cells at 10 uM after 48 hrs by sulforhodamine B assay relative to control; type: functional; conditions: PC-3, 48 h, read-out: GI

Q: `Cc1ccc(C(=O)Cn2cc(CNC(=O)CCN3c4ccccc4Sc4ccccc43)nn2)cc1` was tested. Which inhibition [1] did it give?
A: Its inhibition is 44.2%.

Q: Which inhibition [1] does the source give for `N#Cc1ccc(C(=O)Cn2cc(COC(=O)CN3c4ccccc4Sc4ccccc43)nn2)cc1` here?
A: The inhibition was 20.7%.

Q: `Cc1ccc(C(=O)Cn2cc(COC(=O)CCN3c4ccccc4Sc4ccccc43)nn2)cc1` was tested. Which inhibition [1] did it give?
A: Its inhibition is 10.7%.

Q: `O=C(CN1c2ccccc2Sc2ccccc21)OCc1cn(CC(=O)c2ccc(F)cc2)nn1` was tested. Which inhibition [1] did it give?
A: Its inhibition is 31.9%.

Q: `O=C(CN1c2ccccc2Sc2ccccc21)NCc1cn(CC(=O)c2ccc(F)cc2)nn1` was tested. Which inhibition [1] did it give?
A: The inhibition was 0%.

Q: `O=C(CN1c2ccccc2Sc2ccccc21)NCc1cn(CC(=O)c2ccc(Br)cc2)nn1` was tested. Which “growth inhibition (GI)” value (LOX IMVI) did it give?
A: Its value is “inactive”.

Q: And the inhibition of growth at 10 µM (SK-MEL-5)?
A: Its inhibition of growth at 10 µM is 5%.

Q: What about the inhibition of growth at 10 µM (HCT-15) of the same compound?
A: Its inhibition of growth at 10 µM is 16%.

Q: What about the inhibition of growth at 10 µM (HL-60(TB)) of the same compound?
A: Its inhibition of growth at 10 µM is 13%.

Q: And the inhibition of growth at 10 µM (MOLT-4)?
A: The inhibition of growth at 10 µM was 42%.

Q: What about the inhibition of growth at 10 µM (OVCAR-8) of the same compound?
A: The inhibition of growth at 10 µM was 6%.

Q: And the inhibition of growth at 10 µM (UACC-62)?
A: The inhibition of growth at 10 µM was 25%.

Q: What about the inhibition of growth at 10 µM (RPMI-8226) of the same compound?
A: Its inhibition of growth at 10 µM is 22%.

Q: And the inhibition of growth at 10 µM (CAKI-1)?
A: Its inhibition of growth at 10 µM is 13%.

Q: What about the “growth inhibition (GI)” value (EKVX) of the same compound?
A: The value was “inactive”.

Q: What about the inhibition of growth at 10 µM (SNB-75) of the same compound?
A: Its inhibition of growth at 10 µM is 18%.

Q: What about the inhibition of growth at 10 µM (T47D) of the same compound?
A: Its inhibition of growth at 10 µM is 12%.

Q: And the inhibition of growth at 10 µM (UO-31)?
A: Its inhibition of growth at 10 µM is 13%.

Q: What about the IC50 [2] of the same compound?
A: Its IC50 is 24.3 µM.

Q: And the inhibition of growth at 10 µM (CCRF-CEM)?
A: The inhibition of growth at 10 µM was 17%.

Q: And the inhibition of growth at 10 µM (MDA-MB-231)?
A: The inhibition of growth at 10 µM was 9%.

Q: For `N#Cc1ccc(C(=O)Cn2cc(CNC(=O)CN3c4ccccc4Sc4ccccc43)nn2)cc1`, which inhibition [1] is on record?
A: Its inhibition is 24.9%.

Q: With `N#Cc1ccc(C(=O)Cn2cc(CNC(=O)CCN3c4ccccc4Sc4ccccc43)nn2)cc1` as the compound, how does the IC50 [2] read?
A: The IC50 was 5.2 µM.

Q: Which IC50 [2] does the source give for `O=C(CCN1c2ccccc2Sc2ccccc21)OCc1cn(CC(=O)c2ccc(Cl)cc2)nn1` here?
A: Its IC50 is 1.5 µM.

Q: How did the IC50 [2] turn out when `O=C(CCN1c2ccccc2Sc2ccccc21)OCc1cn(CC(=O)c2ccc(Br)cc2)nn1` was run?
A: Its IC50 is 1.3 µM.

Q: Which results are given for `O=C(CCN1c2ccccc2Sc2ccccc21)NCc1cn(CC(=O)c2ccc(F)cc2)nn1`?
A: inhibition of growth at 10 µM (LOX IMVI): 12%; inhibition of growth at 10 µM (SK-MEL-5): 14%; inhibition of growth at 10 µM (PC-3): 26%; growth inhibition (GI) (HCT-15): inactive; inhibition of growth at 10 µM (HL-60(TB)): 20%; inhibition of growth at 10 µM (MOLT-4): 38%; growth inhibition (GI) (OVCAR-8): inactive; inhibition of growth at 10 µM (UACC-62): 14%; inhibition of growth at 10 µM (RPMI-8226): 3%; inhibition of growth at 10 µM (CAKI-1): 17%; inhibition of growth at 10 µM (EKVX): 22%; inhibition [1]: 52.6%; inhibition of growth at 10 µM (SNB-75): 19%; inhibition of growth at 10 µM (T47D): 7%; inhibition of growth at 10 µM (UO-31): 18%; inhibition of growth at 10 µM (CCRF-CEM): 20%; inhibition of growth at 10 µM (MDA-MB-231): 3%

Q: Which inhibition [1] does the source give for `O=C(CCN1c2ccccc2Sc2ccccc21)NCc1cn(CC(=O)N2c3ccccc3Sc3ccccc32)nn1` here?
A: The inhibition was 0%.

Q: With `COc1ccc(C(=O)Cn2cc(CNC(=O)CN3c4ccccc4Sc4ccccc43)nn2)cc1` as the compound, how does the inhibition [1] read?
A: The inhibition was 24.4%.

Q: With `O=C(CN1c2ccccc2Sc2ccccc21)NCc1cn(CC(=O)N2c3ccccc3Sc3ccc(Cl)cc32)nn1` as the compound, how does the inhibition [1] read?
A: The inhibition was 0%.

Q: With `N#Cc1ccc(C(=O)Cn2cc(COC(=O)CCN3c4ccccc4Sc4ccccc43)nn2)cc1` as the compound, how does the inhibition [1] read?
A: The inhibition was 55.1%.

Q: For `O=C(CN1c2ccccc2Sc2ccccc21)OCc1cn(CC(=O)c2ccc(Br)cc2)nn1`, which inhibition [1] is on record?
A: The inhibition was 35.5%.

Q: For `O=C(CCN1c2ccccc2Sc2ccccc21)OCc1cn(CC(=O)c2ccc(F)cc2)nn1`, which inhibition [1] is on record?
A: Its inhibition is 35.2%.

Q: Which inhibition [1] does the source give for `COc1ccc(C(=O)Cn2cc(CNC(=O)CCN3c4ccccc4Sc4ccccc43)nn2)cc1` here?
A: The inhibition was 29.3%.

Q: With `O=C(CN1c2ccccc2Sc2ccccc21)NCc1cn(CC(=O)c2ccc(Cl)cc2)nn1` as the compound, how does the inhibition [1] read?
A: The inhibition was 40%.

Q: With `Cc1ccc(C(=O)Cn2cc(CNC(=O)CN3c4ccccc4Sc4ccccc43)nn2)cc1` as the compound, how does the inhibition [1] read?
A: The inhibition was 19%.

Q: `O=C(CN1c2ccccc2Sc2ccccc21)NCc1cn(CC(=O)N2c3ccccc3Sc3ccccc32)nn1` was tested. Which inhibition [1] did it give?
A: The inhibition was 0%.

Q: `COc1ccc(C(=O)Cn2cc(COC(=O)CCN3c4ccccc4Sc4ccccc43)nn2)cc1` was tested. Which inhibition [1] did it give?
A: Its inhibition is 22.3%.

Q: Which inhibition of growth at 10 µM (LOX IMVI) does the source give for `O=C(CCN1c2ccccc2Sc2ccccc21)NCc1cn(CC(=O)c2ccc(Cl)cc2)nn1` here?
A: Its inhibition of growth at 10 µM is 9%.

Q: What about the inhibition of growth at 10 µM (SK-MEL-5) of the same compound?
A: The inhibition of growth at 10 µM was 13%.

Q: What about the inhibition of growth at 10 µM (PC-3) of the same compound?
A: The inhibition of growth at 10 µM was 38%.

Q: What about the inhibition of growth at 10 µM (HCT-15) of the same compound?
A: The inhibition of growth at 10 µM was 8%.

Q: And the inhibition of growth at 10 µM (HL-60(TB))?
A: Its inhibition of growth at 10 µM is 68%.

Q: What about the inhibition of growth at 10 µM (MOLT-4) of the same compound?
A: The inhibition of growth at 10 µM was 40%.

Q: And the inhibition of growth at 10 µM (OVCAR-8)?
A: The inhibition of growth at 10 µM was 17%.

Q: What about the inhibition of growth at 10 µM (UACC-62) of the same compound?
A: The inhibition of growth at 10 µM was 26%.

Q: What about the inhibition of growth at 10 µM (RPMI-8226) of the same compound?
A: The inhibition of growth at 10 µM was 19%.

Q: And the inhibition of growth at 10 µM (CAKI-1)?
A: Its inhibition of growth at 10 µM is 32%.

Q: And the inhibition of growth at 10 µM (EKVX)?
A: Its inhibition of growth at 10 µM is 30%.

Q: What about the inhibition of growth at 10 µM (SNB-75) of the same compound?
A: Its inhibition of growth at 10 µM is 20%.

Q: And the inhibition of growth at 10 µM (T47D)?
A: The inhibition of growth at 10 µM was 22%.

Q: What about the inhibition of growth at 10 µM (UO-31) of the same compound?
A: Its inhibition of growth at 10 µM is 36%.

Q: And the IC50 [2]?
A: The IC50 was 7.7 µM.

Q: And the inhibition of growth at 10 µM (CCRF-CEM)?
A: Its inhibition of growth at 10 µM is 19%.

Q: And the inhibition of growth at 10 µM (MDA-MB-231)?
A: The inhibition of growth at 10 µM was 4%.

Q: What does the source list for `O=C(CCN1c2ccccc2Sc2ccccc21)NCc1cn(CC(=O)c2ccc(Br)cc2)nn1`?
A: inhibition of growth at 10 µM (LOX IMVI): 17%; inhibition of growth at 10 µM (SK-MEL-5): 24%; inhibition of growth at 10 µM (PC-3): 42%; inhibition of growth at 10 µM (HCT-15): 7%; inhibition of growth at 10 µM (HL-60(TB)): 41%; inhibition of growth at 10 µM (MOLT-4): 34%; growth inhibition (GI) (OVCAR-8): inactive; inhibition of growth at 10 µM (UACC-62): 29%; inhibition of growth at 10 µM (RPMI-8226): 15%; inhibition of growth at 10 µM (CAKI-1): 37%; inhibition of growth at 10 µM (EKVX): 24%; inhibition of growth at 10 µM (SNB-75): 18%; inhibition of growth at 10 µM (T47D): 29%; inhibition of growth at 10 µM (UO-31): 42%; IC50 [2]: 8.3 µM; inhibition of growth at 10 µM (CCRF-CEM): 18%; inhibition of growth at 10 µM (MDA-MB-231): 14%
